In paper PMC11566078, “Bactericidal activities and biochemical features of 16 antimicrobial peptides against bovine-mastitis causative pathogens” (Veterinary Research, 2024):
Like-named read-outs stand apart in the source and are kept apart here. Where no end group is shown, it is not given here.

Columns and labels:
Type in all cases: cell-based
[1] = test system: Bacillus cereus ATCC 10876; assay: microbe, parasite or virus in culture
Experimental: (§1) The standard bacterial strains used for antimicrobial activity assays include Staphylococcus aureus ATCC (American Type Culture Collection, Manassas, VA, USA) 6538, Bacillus cereus ATCC 10876, Enterococcus faecalis ATCC 29212, Streptococcus […] 27956, Streptococcus dysgalactiae ATCC 27957, Streptococcus equi subsp. zooepidemicus ATCC 43079, Escherichia coli ATCC 25922, and Pseudomonas aeruginosa ATCC 27853. Most bacterial strains were cultured in LB medium except for E. faecalis and streptococci, which were cultivated in brain heart infusion (BHI) broth (BD Bioscience). […] Experiments were conducted in triplicate.

[2] = test system: Streptococcus equi subsp. zooepidemicus ATCC 43079; assay: microbe, parasite or virus in culture
Experimental: as §1

[3] = test system: Streptococcus dysgalactiae ATCC 27957; assay: microbe, parasite or virus in culture
Experimental: as §1

[4] = test system: Pseudomonas aeruginosa ATCC 27853; assay: microbe, parasite or virus in culture
Experimental: as §1

[5] = test system: Streptococcus agalactiae ATCC 27956; assay: microbe, parasite or virus in culture
Experimental: as §1

[6] = test system: Staphylococcus aureus ATCC 6538; assay: microbe, parasite or virus in culture
Experimental: as §1

[7] = test system: Enterococcus faecalis ATCC 29212; assay: microbe, parasite or virus in culture
Experimental: as §1

[8] = test system: eight standard bacterial strains
Experimental: as §1

Staphylococcus xylosus = assay: microbe, parasite or virus in culture; details: field isolate from milk; WST colourimetric, 37 °C 6 h; triplicate
Experimental: (§2) All plates were cultivated aerobically.
(§3) Experiments were conducted in triplicate.

[9] = test system: Staphylococcus epidermidis; assay: microbe, parasite or virus in culture; details: field isolate from milk; WST colourimetric, 37 °C 6 h; triplicate
Experimental: as §2, §3

[10] = test system: Staphylococcus chromogenes; assay: microbe, parasite or virus in culture; details: field isolate from milk; WST colourimetric, 37 °C 6 h; triplicate
Experimental: as §2, §3

[11] = test system: Escherichia coli ATCC 25922; assay: microbe, parasite or virus in culture; details: MH broth, WST colourimetric, 1.5 × 10^5 cells/well, 37 °C 6 h + 2 h reagent, A450, triplicate
Experimental: as §1

[12] = test system: Staphylococcus haemolyticus; assay: MIC against field isolate from milk with high SCC; details: field isolate from milk; WST colourimetric, 37 °C 6 h; triplicate
Experimental: as §2, §3

[13] = only some Gram-negative and Gram-positive strains, range stated for the group of peptides
[14] = ATCC 10876, MH broth, WST colourimetric, 37 °C 6 h, triplicate
[15] = ATCC 43079, BHI broth, WST colourimetric, 37 °C 6 h, triplicate
[16] = ATCC 27957, BHI broth, WST colourimetric, 37 °C 6 h, triplicate
[17] = ATCC 27853, CAMHB, WST colourimetric, 37 °C 6 h, triplicate
[18] = ATCC 27956, BHI broth, WST colourimetric, 37 °C 6 h, triplicate
[19] = ATCC 6538, MH broth, WST colourimetric, 37 °C 6 h, triplicate
[20] = ATCC 29212, BHI broth, WST colourimetric, 37 °C 6 h, triplicate

| Substance | Minimal inhibitory concentration, Bacillus cereus ([1]; ATCC 10876, 6 h) | Minimal inhibitory concentration, Streptococcus equi subsp. zooepidemicus ([2]; ATCC 43079, 6 h) | Minimal inhibitory concentration, Streptococcus dysgalactiae ([3]; ATCC 27957, 6 h) | Minimal inhibitory concentration, Pseudomonas aeruginosa ([4]; ATCC 27853, 6 h) | Minimal inhibitory concentration, Streptococcus agalactiae ([5]; ATCC 27956, 6 h) | Minimal inhibitory concentration, Staphylococcus aureus ([6]; ATCC 6538, 6 h) | Minimal inhibitory concentration, Enterococcus faecalis ([7]; ATCC 29212, 6 h) | MICs, range over the strains against which active [8, 13] [µM] | also measured |
| --- | --- | --- | --- | --- | --- | --- | --- | --- | --- |
| GGLRSLGRKILRAWKKYGPIIVPIIRIG [BMAP-28] | 7 (2.2) μg/mL | > 40 (12.6) μg/mL | > 40 (12.6) μg/mL | 9 (2.9) μg/mL | > 40 (12.6) μg/mL | 5 (1.6) μg/mL | 15 (4.8) μg/mL | 0.7 to 18.8 | – |
| GRFRRLRKKTRKRLKKIGKVLKWIPPIVGSIPLGCG [PMAP-36] | 28 (6.7) μg/mL | > 40 (9.6) μg/mL | > 40 (9.6) μg/mL | 8 (1.9) μg/mL | > 40 (9.6) μg/mL | 9 (2.2) μg/mL | > 40 (9.6) μg/mL | – | – |
| ILGRLRDLLRRGGRKIGQGLERIGQRIQGFFSNREPMEES [HA-CATH] | 25 (5.4) μg/mL | > 40 (8.6) μg/mL | > 40 (8.6) μg/mL | > 40 (8.6) μg/mL | > 40 (8.6) μg/mL | 26 (5.6) μg/mL | > 40 (8.6) μg/mL | 0.7 to 18.8 | – |
| KRRGSVTTRYQFLMIHLLRPKKLFA [EA-CATH1] | > 40 (13.1) μg/mL | > 40 (13.1) μg/mL | > 40 (13.1) μg/mL | 19 (6.1) μg/mL | > 40 (13.1) μg/mL | 41 (13.4) μg/mL | 30 (9.8) μg/mL | 0.7 to 18.8 | – |
| Lysostaphin: bacteriocin produced by Staphylococcus simulans, purchased (Sigma Aldrich) | – | – | – | – | – | – | – | – | Minimal inhibitory concentration, Staphylococcus xylosus (Staphylococcus xylosus): 0.5 (18.7) μg/mL; Minimal inhibitory concentration, Staphylococcus epidermidis [9]: 1 (37.3) μg/mL; Minimal inhibitory concentration, Staphylococcus chromogenes [10]: 0.25 (9.3) μg/mL; Minimal inhibitory concentration, Escherichia coli [11]: > 160 (29.7) μg/mL; Minimal inhibitory concentration, Bacillus cereus [1, 14]: > 160 (29.7) μg/mL; Minimal inhibitory concentration, Streptococcus equi subsp. zooepidemicus [2, 15]: > 160 (29.7) μg/mL; Minimal inhibitory concentration, Streptococcus dysgalactiae [3, 16]: > 160 (29.7) μg/mL; Minimal inhibitory concentration, Pseudomonas aeruginosa [4, 17]: > 160 (29.7) μg/mL; Minimal inhibitory concentration, Streptococcus agalactiae [5, 18]: > 160 (29.7) μg/mL; Minimal inhibitory concentration, Staphylococcus aureus [6, 19]: 1 µg/mL; Minimal inhibitory concentration, Enterococcus faecalis [7, 20]: > 160 (29.7) μg/mL; Minimal inhibitory concentration, Staphylococcus haemolyticus [12]: 1 (37.3) μg/mL |
| MRGGRLCYCRRRFCVCVGR (disulfide (positions not given here)) [PG-1, pig cathelicidin produced recombinantly with a GFP-scaffold system, CNBr cleaved, disulfide bonds installed] | – | – | – | – | – | – | – | 0.7 to 18.8 | Minimal inhibitory concentration, Escherichia coli [11]: 23 (10.0) μg/mL; Minimal inhibitory concentration, Bacillus cereus [1, 14]: > 40 (17.5) μg/mL; Minimal inhibitory concentration, Streptococcus equi subsp. zooepidemicus [2, 15]: > 40 (17.5) μg/mL; Minimal inhibitory concentration, Streptococcus dysgalactiae [3, 16]: 32 (14.0) μg/mL; Minimal inhibitory concentration, Pseudomonas aeruginosa [4, 17]: 20 (8.7) μg/mL; Minimal inhibitory concentration, Streptococcus agalactiae [5, 18]: > 40 (17.5) μg/mL; Minimal inhibitory concentration, Enterococcus faecalis [7, 20]: > 40 (17.5) μg/mL |
| Nisin | – | – | – | – | – | – | – | – | Minimal inhibitory concentration, Escherichia coli [11]: > 64 (19.2) μg/mL; Minimal inhibitory concentration, Bacillus cereus [1, 14]: 4 (1.2) μg/mL; Minimal inhibitory concentration, Streptococcus equi subsp. zooepidemicus [2, 15]: 4 (1.2) μg/mL; Minimal inhibitory concentration, Streptococcus dysgalactiae [3, 16]: 4 (1.2) μg/mL; Minimal inhibitory concentration, Pseudomonas aeruginosa [4, 17]: > 64 (19.2) μg/mL; Minimal inhibitory concentration, Streptococcus agalactiae [5, 18]: 2 (0.60) μg/mL; Minimal inhibitory concentration, Staphylococcus aureus [6, 19]: 2 (0.60) μg/mL; MICs, range over all Gram-positive strains in the panel ([8]; all Gram-positive strains of the standard panel): 2 to 16 µg/mL |
| RRRPRPPYLPRPRPPPFFPPRLPPRIPPGFPPRFP [PR-35] | > 40 (9.5) μg/mL | > 40 (9.5) μg/mL | > 40 (9.5) μg/mL | > 40 (9.5) μg/mL | > 40 (9.5) μg/mL | > 40 (9.5) μg/mL | > 40 (9.5) μg/mL | – | – |
| SKFFRKARKKLGKGLQKIKNVLRKY [ΔHg-CATH] | > 40 (13.2) μg/mL | 15 (4.9) μg/mL | 15 (4.9) μg/mL | 5 (1.7) μg/mL | > 40 (13.2) μg/mL | > 40 (13.2) μg/mL | > 40 (13.2) μg/mL | – | MICs, range over the strains against which active [8]: 0.7 to 18.8 µM |
| TRSRWRRFIRGAGRFARRYGWRIA [ΔPb-CATH4] | > 40 (13.1) μg/mL | 20 (6.6) μg/mL | > 40 (13.1) μg/mL | 11 (3.5) μg/mL | > 40 (13.1) μg/mL | 4 (1.3) μg/mL | > 40 (13.1) μg/mL | – | MICs, range over the strains against which active [8]: 0.7 to 18.8 µM |
| VKRTKRGARRGLTKVLKKIFGSIVKKAVSKGV [ΔModoCath1] | – | – | – | 2.9 µM | – | 11 (3.2) μg/mL | 2.9 µM | 0.7 to 18.8 | – |
| VRRSKRGIKVPSFVKKVLKDVVSESIS [ΔModoCath6] | > 40 (13.2) μg/mL | > 40 (13.2) μg/mL | > 40 (13.2) μg/mL | > 40 (13.2) μg/mL | > 40 (13.2) μg/mL | > 40 (13.2) μg/mL | > 40 (13.2) μg/mL | – | – |
| WYQLIRTFGNLIHQKYRKLLEAYRKLRD [ΔModoCath5] | 26 (7.3) μg/mL | > 40 (11.0) μg/mL | > 40 (11.0) μg/mL | > 40 (11.0) μg/mL | > 40 (11.0) μg/mL | 6 (1.7) μg/mL | 10 (2.8) μg/mL | – | – |
